Laboratory results taken from ChEMBL document CHEMBL1201862, “PubChem BioAssay data set” (2004).
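Each compound was tested at five concentrations against cells in 96-well plates for 48 hours. GI50: concentration for 50% inhibition of growth.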 The source made the active and inactive calls. No stated cut-off is given here; in the data, active = GI50 up to about 1.1 µM and inactive = higher.

Columns and labels:
Assay in all cases: NCI-60 cell line screen, 48 h
786-0 = system: 786-0
A498 = system: A498
A549 = system: A549
ACHN = system: ACHN
BT-549 = system: BT-549
CAKI-1 = system: CAKI-1
CCRF-CEM = system: CCRF-CEM
COLO 205 = system: COLO 205
DU-145 = system: DU-145
EKVX = system: EKVX
HCC 2998 = system: HCC 2998
HCT-116 = system: HCT-116
HCT-15 = system: HCT-15
HL-60 = system: HL-60
HOP-62 = system: HOP-62
HOP-92 = system: HOP-92
Hs-578T = system: Hs-578T
IGROV-1 = system: IGROV-1
K562 = system: K562
KM12 = system: KM12
M14 = system: M14
MCF7 = system: MCF7
MDA-MB-435 = system: MDA-MB-435
MOLT-4 = system: MOLT-4
Malme-3M = system: Malme-3M
NCI-H23 = system: NCI-H23
NCI-H460 = system: NCI-H460
NCI-H522 = system: NCI-H522
NCI/ADR-RES = system: NCI/ADR-RES
OVCAR-3 = system: OVCAR-3
OVCAR-4 = system: OVCAR-4
OVCAR-5 = system: OVCAR-5
OVCAR-8 = system: OVCAR-8
PC-3 = system: PC-3
RPMI-8226 = system: RPMI-8226
RXF 393 = system: RXF 393
SF-268 = system: SF-268
SF-295 = system: SF-295
SF-539 = system: SF-539
SK-MEL-2 = system: SK-MEL-2
SK-MEL-5 = system: SK-MEL-5
SK-OV-3 = system: SK-OV-3
SN12C = system: SN12C
SNB-19 = system: SNB-19
SNB-75 = system: SNB-75
SW-620 = system: SW-620
T47D = system: T47D
TK-10 = system: TK-10
U-251 = system: U-251
UACC-257 = system: UACC-257
UO-31 = system: UO-31
HT-29 = system: HT-29
LOX IMVI = system: LOX IMVI
MDA-MB-231 = system: MDA-MB-231
NCI-H226 = system: NCI-H226
SK-MEL-28 = system: SK-MEL-28
SR = system: SR
UACC-62 = system: UACC-62

Measured: GI50

Cc1c(-c2ccc(O)c(O)c2)oc(=O)c2c(O)cccc12
inactive: 786-0 9.73 µM | A498 15 µM | A549 7.93 µM | ACHN 20 µM | BT-549 6.24 µM | CAKI-1 7.35 µM | CCRF-CEM 3.08 µM | COLO 205 9.71 µM | DU-145 14.4 µM | EKVX 8.87 µM | HCC 2998 10.4 µM | HCT-116 6.56 µM | HL-60 3.88 µM | HOP-62 10.7 µM | HOP-92 16.3 µM | Hs-578T 3.03 µM | IGROV-1 5.82 µM | K562 4.85 µM | KM12 10.1 µM | M14 8.05 µM | MCF7 6.68 µM | MDA-MB-435 3.17 µM | MOLT-4 3.02 µM | Malme-3M 13.3 µM | NCI-H23 10.3 µM | NCI-H460 11.6 µM | NCI-H522 2.95 µM | NCI/ADR-RES 10.5 µM | OVCAR-3 11.6 µM | OVCAR-4 11.7 µM | OVCAR-5 14.8 µM | OVCAR-8 53.3 µM | PC-3 12.9 µM | RPMI-8226 13.7 µM | RXF 393 12.4 µM | SF-268 9.1 µM | SF-295 17.7 µM | SF-539 12.5 µM | SK-MEL-2 13.1 µM | SK-MEL-5 10.4 µM | SK-OV-3 6.04 µM | SN12C 5.27 µM | SNB-19 6.3 µM | SNB-75 13.3 µM | SW-620 12.2 µM | T47D 1.55 µM | TK-10 12.2 µM | U-251 12.1 µM | UACC-257 15.7 µM | UO-31 11.1 µM
3.96 µM: HCT-15

COc1cc2c(cc1O)NC(=O)[C@@H]1C[C@@H](O)CN1C2=O
50.7 µM: HCT-15
inactive: 786-0 52 µM | A498 > 100 µM | A549 > 100 µM | ACHN 74.6 µM | BT-549 86.1 µM | CAKI-1 78 µM | CCRF-CEM 28.4 µM | COLO 205 > 100 µM | DU-145 > 100 µM | EKVX > 100 µM | HCC 2998 > 100 µM | HCT-116 49 µM | HOP-62 27.4 µM | HOP-92 > 100 µM | HT-29 72.6 µM | Hs-578T 43.8 µM | IGROV-1 > 100 µM | K562 57.7 µM | KM12 53.6 µM | LOX IMVI 40.2 µM | M14 72.1 µM | MCF7 > 100 µM | MDA-MB-231 > 100 µM | MDA-MB-435 91.6 µM | MOLT-4 37.6 µM | Malme-3M > 100 µM | NCI-H226 > 100 µM | NCI-H23 > 100 µM | NCI-H460 72.4 µM | NCI-H522 33.8 µM | NCI/ADR-RES 11.4 µM | OVCAR-3 29.2 µM | OVCAR-4 > 100 µM | OVCAR-5 > 100 µM | OVCAR-8 98.2 µM | PC-3 43.8 µM | RPMI-8226 45.6 µM | RXF 393 > 100 µM | SF-268 88.1 µM | SF-295 27 µM | SF-539 43.8 µM | SK-MEL-28 > 100 µM | SK-MEL-2 > 100 µM | SK-MEL-5 58.1 µM | SK-OV-3 > 100 µM | SN12C > 100 µM | SNB-19 > 100 µM | SNB-75 > 100 µM | SR 39.9 µM | SW-620 64.3 µM | T47D > 100 µM | TK-10 > 100 µM | U-251 79.3 µM | UACC-257 > 100 µM | UACC-62 > 100 µM | UO-31 64.4 µM
